# Results from US9028845B2, “Chimeric immunomodulatory compounds and methods of using the same-IV” (Dynavax Technologies Corporation, priority 2001, dated 2015).
# Key:
# human PBMCs = experiment: Human PBMC cytokine response assay (IFN-γ and IFN-α in cell-free medium by ELISA), with or without cPLGA; type: cell-based; details: for IFN-a mean / IFN-g mean: mean of donors 28250-28253;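 for IFN-α (pg/ml) mean: 20 µg/mL compound for 24 hours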;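 for IFN-γ (pg/ml) mean: 20 µg/mL compound for 24 hours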
# PBMCs = experiment: Human PBMC proliferation assay (3H-thymidine incorporation); type: cell-based; details: Experiment A; for mean cpm: 2 μg/ml
# CD19+ B cells = experiment: Human B cell proliferation assay (3H-thymidine incorporation)
# [1] = Table 24, mean of donors 28234-28237
# [2] = Table 25, donor 28250, polynucleotides/spacers at amounts equivalent to the CIC, spacers alone 9 uM
# [3] = donor 28066, 20 ug/ml, 24 h, + PLGA = premixed with 100 μg/ml cPLGA
# [4] = donor 28067, 20 ug/ml, 24 h, + PLGA = premixed with 100 μg/ml cPLGA
# [5] = donor 28068, 20 ug/ml, 24 h, + PLGA = premixed with 100 μg/ml cPLGA
# [6] = mean of donors 28065-28068, 20 ug/ml, 24 h, + PLGA = premixed with 100 μg/ml cPLGA
# [7] = mean of donors 28185-28188, Table 15
# [8] = B cells, Donor 146, 2 μg/ml, Experiment A
# [9] = B cells, Donor 147, 2 μg/ml, Experiment A
substance,measurement,setting,value
5′-TCGTCGA-3′-HEG-5′-TCGTCGA-3′-HEG-5′-TCGTCGA-3′ [Compound C-21],IFN-α,"human PBMCs; Table 9, donor 28089",56 pg/mL
same,IFN-γ,"human PBMCs; Table 9, donor 28089",61 pg/mL
same,IFN-α,"human PBMCs; Table 9, donor 28090",157 pg/mL
same,IFN-γ,"human PBMCs; Table 9, donor 28090",68 pg/mL
same,IFN-α,"human PBMCs; Table 9, donor 28098",286 pg/mL
same,IFN-γ,"human PBMCs; Table 9, donor 28098",218 pg/mL
same,IFN-α,"human PBMCs; Table 9, donor 28099",466 pg/mL
same,IFN-γ,"human PBMCs; Table 9, donor 28099",124 pg/mL
same,IFN-α mean,"human PBMCs; Table 9, mean of donors",241 pg/mL
same,IFN-γ mean,"human PBMCs; Table 9, mean of donors",118 pg/mL
same,IFN-α,"human PBMCs; Table 10, donor 28042",57 pg/mL
same,IFN-γ,"human PBMCs; Table 10, donor 28042",790 pg/mL
same,IFN-α,"human PBMCs; Table 10, donor 28043",72 pg/mL
same,IFN-γ,"human PBMCs; Table 10, donor 28043",1519 pg/mL
same,IFN-α,"human PBMCs; Table 10, donor 28044",79 pg/mL
same,IFN-γ,"human PBMCs; Table 10, donor 28044",1198 pg/mL
same,IFN-α,"human PBMCs; Table 10, donor 28045",15 pg/mL
same,IFN-γ,"human PBMCs; Table 10, donor 28045",177 pg/mL
same,IFN-α mean,"human PBMCs; Table 10, mean of donors",56 pg/mL
same,IFN-γ mean,"human PBMCs; Table 10, mean of donors",921 pg/mL
same,IFN-α,"human PBMCs; Table 11, donor 28042",146 pg/mL
same,IFN-γ,"human PBMCs; Table 11, donor 28042",572 pg/mL
same,IFN-α,"human PBMCs; Table 11, donor 28043",94 pg/mL
same,IFN-γ,"human PBMCs; Table 11, donor 28043",460 pg/mL
same,IFN-α,"human PBMCs; Table 11, donor 28044",191 pg/mL
same,IFN-γ,"human PBMCs; Table 11, donor 28044",4000 pg/mL
same,IFN-α,"human PBMCs; Table 11, donor 28045",349 pg/mL
same,IFN-γ,"human PBMCs; Table 11, donor 28045",1644 pg/mL
same,IFN-α mean,"human PBMCs; Table 11, mean of donors",195 pg/mL
same,IFN-γ mean,"human PBMCs; Table 11, mean of donors",1669 pg/mL
same,IFN-α,"human PBMCs; Table 24, donor 28234",16 pg/mL
same,IFN-γ,"human PBMCs; Table 24, donor 28234",4 pg/mL
same,IFN-α,"human PBMCs; Table 24, donor 28235",16 pg/mL
same,IFN-γ,"human PBMCs; Table 24, donor 28235",107 pg/mL
same,IFN-α,"human PBMCs; Table 24, donor 28236",73 pg/mL
same,IFN-γ,"human PBMCs; Table 24, donor 28236",308 pg/mL
same,IFN-α,"human PBMCs; Table 24, donor 28237",678 pg/mL
same,IFN-γ,"human PBMCs; Table 24, donor 28237",1645 pg/mL
same,IFN-α mean,human PBMCs; [1],196 pg/mL
same,IFN-γ mean,human PBMCs; [1],516 pg/mL
same,IFN-a,"human PBMCs; Table 25, donor 28250",31 pg/mL
same,IFN-g,human PBMCs; [2],122 pg/mL
same,IFN-a,"human PBMCs; Table 25, donor 28251",69 pg/mL
same,IFN-g,"human PBMCs; Table 25, donor 28251",51 pg/mL
same,IFN-a,"human PBMCs; Table 25, donor 28252",41 pg/mL
same,IFN-g,"human PBMCs; Table 25, donor 28252",155 pg/mL
same,IFN-a,"human PBMCs; Table 25, donor 28253",264 pg/mL
same,IFN-g,"human PBMCs; Table 25, donor 28253",203 pg/mL
same,IFN-a mean,human PBMCs; Table 25,101 pg/mL
same,IFN-g mean,human PBMCs; Table 25,133 pg/mL
same,IFN-γ (pg/ml) 28065,"human PBMCs; donor 28065 (high background), 20 ug/ml, 24 h, + PLGA = premixed with 100 μg/ml cPLGA, 1000 = outside assay limits",653 pg/mL
same,IFN-α (pg/ml) 28065,"human PBMCs; donor 28065, 20 ug/ml, 24 h, + PLGA = premixed with 100 μg/ml cPLGA",227 pg/mL
same,IFN-α (pg/ml) 28066,human PBMCs; [3],24 pg/mL
same,IFN-γ (pg/ml) 28066,human PBMCs; [3],16 pg/mL
same,IFN-α (pg/ml) 28067,human PBMCs; [4],183 pg/mL
same,IFN-γ (pg/ml) 28067,human PBMCs; [4],24 pg/mL
same,IFN-α (pg/ml) 28068,human PBMCs; [5],769 pg/mL
same,IFN-γ (pg/ml) 28068,human PBMCs; [5],960 pg/mL
same,IFN-a,"human PBMCs; donor 28185, Table 15",443 pg/mL
same,IFN-g,"human PBMCs; donor 28185, Table 15",244 pg/mL
same,IFN-a,"human PBMCs; donor 28186, Table 15",64 pg/mL
same,IFN-g,"human PBMCs; donor 28186, Table 15",37 pg/mL
same,IFN-a,"human PBMCs; donor 28187, Table 15",1 pg/mL
same,IFN-g,"human PBMCs; donor 28187, Table 15",125 pg/mL
same,IFN-a,"human PBMCs; donor 28188, Table 15",4 pg/mL
same,IFN-g,"human PBMCs; donor 28188, Table 15",7 pg/mL
same,IFN-α (pg/ml) mean,human PBMCs; [6],300 pg/mL
same,IFN-γ (pg/ml) mean,human PBMCs; [6],413 pg/mL
same,IFN-a (pg/ml) mean,human PBMCs; [7],128 pg/mL
same,IFN-g (pg/ml) mean,human PBMCs; [7],103 pg/mL
same,IFN-a (pg/ml) ×2,"human PBMCs; mean ×2, Table 15",256 pg/mL
same,IFN-g (pg/ml) ×4,"human PBMCs; mean ×4, Table 15",413 pg/mL
same,"immunomodulatory activity (IFN-γ / IFN-α secretion), in words",human PBMCs; used alone (no cPLGA),more active than other CG-containing CICs
same,cpm1,"PBMCs; Donor 146, 2 μg/ml",30338 cpm
same,cpm2,"PBMCs; Donor 146, 2 μg/ml",22685 cpm
same,cpm3,"PBMCs; Donor 146, 2 μg/ml",22383 cpm
same,mean cpm,PBMCs; Donor 146 mean,25135 cpm
same,cpm1,"PBMCs; Donor 147, 2 μg/ml",28819 cpm
same,cpm2,"PBMCs; Donor 147, 2 μg/ml",530 cpm
same,cpm3,"PBMCs; Donor 147, 2 μg/ml",37088 cpm
same,mean cpm,PBMCs; Donor 147 mean,22146 cpm
same,mean of both,"PBMCs; mean of Donors 146 and 147, 2 μg/ml",23641 cpm
same,"B cell proliferation, in words","CD19+ B cells; 2 μg/ml, 48 h plus 8 h 3H-thymidine pulse",cause B cells to proliferate
same,cpm1,CD19+ B cells; [8],28467 cpm
same,cpm2,CD19+ B cells; [8],16074 cpm
same,cpm3,CD19+ B cells; [8],19258 cpm
same,mean cpm,"CD19+ B cells; B cells, Donor 146 mean, 2 μg/ml, Experiment A",21266 cpm
same,cpm1,CD19+ B cells; [9],17604 cpm
same,cpm2,CD19+ B cells; [9],18851 cpm
same,cpm3,CD19+ B cells; [9],19887 cpm
same,mean cpm,"CD19+ B cells; B cells, Donor 147 mean, 2 μg/ml, Experiment A",18781 cpm
same,mean of both,"CD19+ B cells; B cells, mean of Donors 146 and 147, 2 μg/ml, Experiment A",20024 cpm
(5′-TCGACGT-3′-HEG)2-glycerol-HEG-5′-TCGACGT-3′ [Compound C-101],IFN-α,"human PBMCs; Example 58, 0.8 ug/ml, donor 1",52 pg/mL
same,IFN-α,"human PBMCs; Example 58, 0.8 ug/ml, donor 2",52 pg/mL
same,IFN-α,"human PBMCs; Example 58, 0.8 ug/ml, donor 3",52 pg/mL
same,IFN-α,"human PBMCs; Example 58, 0.8 ug/ml, donor 4",52 pg/mL
same,IFN-α mean,"human PBMCs; Example 58, 0.8 ug/ml, mean of four individuals",52 pg/mL
same,IFN-α,"human PBMCs; Example 58, 4 ug/ml, donor 1",52 pg/mL
same,IFN-α,"human PBMCs; Example 58, 4 ug/ml, donor 2",52 pg/mL
same,IFN-α,"human PBMCs; Example 58, 4 ug/ml, donor 3",59 pg/mL
same,IFN-α,"human PBMCs; Example 58, 4 ug/ml, donor 4",204 pg/mL
same,IFN-α mean,"human PBMCs; Example 58, 4 ug/ml, mean of four individuals",92 pg/mL
same,IFN-α,"human PBMCs; Example 58, 20 ug/ml, donor 1",2330 pg/mL
same,IFN-α,"human PBMCs; Example 58, 20 ug/ml, donor 2",109 pg/mL
same,IFN-α,"human PBMCs; Example 58, 20 ug/ml, donor 3",215 pg/mL
same,IFN-α,"human PBMCs; Example 58, 20 ug/ml, donor 4",157 pg/mL
same,IFN-α mean,"human PBMCs; Example 58, 20 ug/ml, mean of four individuals",703 pg/mL
same,IFN-α,"human PBMCs; Example 59, 0.8 ug/ml, donor 48",102 pg/mL
same,IFN-α,"human PBMCs; Example 59, 0.8 ug/ml, donor 177",102 pg/mL
same,IFN-α,"human PBMCs; Example 59, 0.8 ug/ml, donor 272",185 pg/mL
same,IFN-α,"human PBMCs; Example 59, 0.8 ug/ml, donor 273",102 pg/mL
same,IFN-α mean,"human PBMCs; Example 59, 0.8 ug/ml, mean of four donors",123 pg/mL
same,IFN-α,"human PBMCs; Example 59, 4 ug/ml, donor 48",818 pg/mL
same,IFN-α,"human PBMCs; Example 59, 4 ug/ml, donor 177",3631 pg/mL
same,IFN-α,"human PBMCs; Example 59, 4 ug/ml, donor 272",604 pg/mL
same,IFN-α,"human PBMCs; Example 59, 4 ug/ml, donor 273",102 pg/mL
same,IFN-α mean,"human PBMCs; Example 59, 4 ug/ml, mean of four donors",1289 pg/mL
same,IFN-α,"human PBMCs; Example 59, 20 ug/ml, donor 48",2212 pg/mL
same,IFN-α,"human PBMCs; Example 59, 20 ug/ml, donor 177",4277 pg/mL
same,IFN-α,"human PBMCs; Example 59, 20 ug/ml, donor 272",642 pg/mL
same,IFN-α,"human PBMCs; Example 59, 20 ug/ml, donor 273",102 pg/mL
same,IFN-α mean,"human PBMCs; Example 59, 20 ug/ml, mean of four donors",1808 pg/mL
same,"IFN-α induction (FIG. 10), in words","human PBMCs; PBMCs from 8 donors, 20 μg/ml, 24 h",induce high levels of IFN-α
same,IFN-α,"human PBMCs; Table 24, donor 28234",16 pg/mL
same,IFN-γ,"human PBMCs; Table 24, donor 28234",14 pg/mL
same,IFN-α,"human PBMCs; Table 24, donor 28235",249 pg/mL
same,IFN-γ,"human PBMCs; Table 24, donor 28235",205 pg/mL
same,IFN-α,"human PBMCs; Table 24, donor 28236",1354 pg/mL
same,IFN-γ,"human PBMCs; Table 24, donor 28236",627 pg/mL
same,IFN-α,"human PBMCs; Table 24, donor 28237",8566 pg/mL
same,IFN-γ,"human PBMCs; Table 24, donor 28237",2612 pg/mL
same,IFN-α mean,human PBMCs; [1],2546 pg/mL
same,IFN-γ mean,human PBMCs; [1],865 pg/mL
same,IFN-a,"human PBMCs; Table 25, donor 28250",540 pg/mL
same,IFN-g,human PBMCs; [2],224 pg/mL
same,IFN-a,"human PBMCs; Table 25, donor 28251",1472 pg/mL
same,IFN-g,"human PBMCs; Table 25, donor 28251",63 pg/mL
same,IFN-a,"human PBMCs; Table 25, donor 28252",509 pg/mL
same,IFN-g,"human PBMCs; Table 25, donor 28252",180 pg/mL
same,IFN-a,"human PBMCs; Table 25, donor 28253",2645 pg/mL
same,IFN-g,"human PBMCs; Table 25, donor 28253",146 pg/mL
same,IFN-a mean,human PBMCs; Table 25,1291 pg/mL
same,IFN-g mean,human PBMCs; Table 25,153 pg/mL
same,"B cell proliferation (FIG. 11), in words","CD19+ B cells; purified human B cells, 5 μg/ml, 96 h",induce very little B cell proliferation
